Test [1] has as its target T1, N-type calcium channel α1B (Cav2.2), β3 and α2δ subunits (Homo sapiens, UniProt Q00975).
T1 construct: expressed in transfected cells
As to the kind of experiment: Functional assay, antagonism of N-type calcium channel (FDSS calcium mobilization response to KCl depolarization). It is filed as cell-based. The following applies: for inhibition at 0.33 µM: 0.33 μM compound, FDSS, 50 mM KCl; for IC50: HEK stable cell line, 50 mM KCl depolarization, six-point concentration-response. The method, boiled down:
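HEK cells stably co-expressing α1B (Cav2.2), β3 and α2δ subunits were loaded with calcium dye, preincubated with compound for 5 min, then depolarized with 50 mM KCl and read for 3 min by FDSS fluorescence. IC50 from six-point curves, normalized to KCl maximum and buffer minimum.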
(In general: Calcium assays in cells follow changes in intracellular calcium, usually with a dye or a luminescent sensor.)

In another test the target is T2, N-type calcium channel (Homo sapiens, UniProt Q00975).
T2 construct: expressed in transfected cells
T2 sequence (Q00975 whole entry): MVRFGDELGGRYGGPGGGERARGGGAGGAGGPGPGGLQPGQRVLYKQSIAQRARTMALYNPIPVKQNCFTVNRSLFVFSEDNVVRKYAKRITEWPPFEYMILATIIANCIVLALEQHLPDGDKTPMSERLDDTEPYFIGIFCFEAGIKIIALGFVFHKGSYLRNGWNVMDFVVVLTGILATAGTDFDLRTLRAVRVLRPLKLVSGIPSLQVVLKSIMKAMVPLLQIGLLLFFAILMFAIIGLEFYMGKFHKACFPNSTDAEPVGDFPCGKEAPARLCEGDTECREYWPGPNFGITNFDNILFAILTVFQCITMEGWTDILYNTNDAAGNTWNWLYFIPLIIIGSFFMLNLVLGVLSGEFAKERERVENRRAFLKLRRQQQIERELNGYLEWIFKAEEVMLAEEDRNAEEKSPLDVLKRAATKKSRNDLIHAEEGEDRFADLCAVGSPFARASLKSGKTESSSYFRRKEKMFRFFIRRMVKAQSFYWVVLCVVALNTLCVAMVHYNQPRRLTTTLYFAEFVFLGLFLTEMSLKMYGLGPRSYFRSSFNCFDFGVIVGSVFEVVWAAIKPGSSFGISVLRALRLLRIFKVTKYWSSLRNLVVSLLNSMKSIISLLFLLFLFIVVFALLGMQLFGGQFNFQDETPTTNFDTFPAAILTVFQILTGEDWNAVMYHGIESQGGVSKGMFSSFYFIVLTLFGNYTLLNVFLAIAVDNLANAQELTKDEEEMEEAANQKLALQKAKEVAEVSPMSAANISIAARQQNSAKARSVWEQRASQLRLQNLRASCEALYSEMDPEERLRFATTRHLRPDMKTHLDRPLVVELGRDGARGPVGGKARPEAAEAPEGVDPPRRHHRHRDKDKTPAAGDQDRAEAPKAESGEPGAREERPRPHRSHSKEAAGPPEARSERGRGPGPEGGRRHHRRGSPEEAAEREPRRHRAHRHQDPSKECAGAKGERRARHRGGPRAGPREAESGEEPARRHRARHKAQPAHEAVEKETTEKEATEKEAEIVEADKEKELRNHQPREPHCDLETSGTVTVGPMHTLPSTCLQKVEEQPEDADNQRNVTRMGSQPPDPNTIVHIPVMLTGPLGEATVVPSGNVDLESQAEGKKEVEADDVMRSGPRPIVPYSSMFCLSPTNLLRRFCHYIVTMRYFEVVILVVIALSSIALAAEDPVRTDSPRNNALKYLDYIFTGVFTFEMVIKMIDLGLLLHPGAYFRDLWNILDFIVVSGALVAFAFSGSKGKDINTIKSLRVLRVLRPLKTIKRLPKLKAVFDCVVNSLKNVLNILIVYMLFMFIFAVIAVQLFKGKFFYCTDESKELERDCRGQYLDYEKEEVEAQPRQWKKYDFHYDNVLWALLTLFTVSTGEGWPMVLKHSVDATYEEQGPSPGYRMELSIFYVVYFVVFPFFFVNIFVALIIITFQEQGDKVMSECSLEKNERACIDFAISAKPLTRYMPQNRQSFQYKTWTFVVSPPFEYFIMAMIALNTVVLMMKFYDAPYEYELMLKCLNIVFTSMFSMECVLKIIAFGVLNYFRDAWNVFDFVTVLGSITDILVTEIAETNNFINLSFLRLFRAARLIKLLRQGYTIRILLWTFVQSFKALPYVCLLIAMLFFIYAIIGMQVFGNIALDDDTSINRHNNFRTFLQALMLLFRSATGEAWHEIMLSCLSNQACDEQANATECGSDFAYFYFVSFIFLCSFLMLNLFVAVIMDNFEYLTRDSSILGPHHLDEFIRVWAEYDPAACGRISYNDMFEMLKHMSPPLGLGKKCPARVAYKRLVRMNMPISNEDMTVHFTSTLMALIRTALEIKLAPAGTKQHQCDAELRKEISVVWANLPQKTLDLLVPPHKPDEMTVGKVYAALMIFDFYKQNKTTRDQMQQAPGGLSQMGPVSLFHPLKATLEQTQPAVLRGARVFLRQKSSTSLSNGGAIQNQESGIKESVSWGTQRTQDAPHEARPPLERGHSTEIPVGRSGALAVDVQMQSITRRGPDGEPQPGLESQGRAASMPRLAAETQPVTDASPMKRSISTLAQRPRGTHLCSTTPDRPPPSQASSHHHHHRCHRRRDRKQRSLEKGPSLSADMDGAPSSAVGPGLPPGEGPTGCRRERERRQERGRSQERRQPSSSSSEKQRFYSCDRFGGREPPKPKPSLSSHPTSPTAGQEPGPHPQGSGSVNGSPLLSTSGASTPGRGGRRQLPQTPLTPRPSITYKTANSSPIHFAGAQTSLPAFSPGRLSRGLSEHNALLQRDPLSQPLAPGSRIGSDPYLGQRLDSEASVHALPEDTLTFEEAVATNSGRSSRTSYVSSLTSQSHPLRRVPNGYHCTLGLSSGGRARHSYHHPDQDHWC
T2 sequence (P54284 whole entry partner): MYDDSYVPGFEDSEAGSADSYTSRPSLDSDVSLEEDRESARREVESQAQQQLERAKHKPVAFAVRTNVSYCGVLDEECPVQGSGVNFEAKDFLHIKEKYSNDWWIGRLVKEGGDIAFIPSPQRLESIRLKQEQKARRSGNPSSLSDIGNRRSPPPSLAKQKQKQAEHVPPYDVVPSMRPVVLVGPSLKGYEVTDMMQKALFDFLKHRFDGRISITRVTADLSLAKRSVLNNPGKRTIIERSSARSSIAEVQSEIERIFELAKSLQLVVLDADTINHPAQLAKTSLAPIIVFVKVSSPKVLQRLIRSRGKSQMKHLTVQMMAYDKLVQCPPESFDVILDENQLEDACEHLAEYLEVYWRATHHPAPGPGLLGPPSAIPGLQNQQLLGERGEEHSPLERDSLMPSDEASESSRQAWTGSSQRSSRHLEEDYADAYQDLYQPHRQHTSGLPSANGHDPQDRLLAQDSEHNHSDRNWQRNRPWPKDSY
T2 sequence (P54289 25-956 partner limits assumed): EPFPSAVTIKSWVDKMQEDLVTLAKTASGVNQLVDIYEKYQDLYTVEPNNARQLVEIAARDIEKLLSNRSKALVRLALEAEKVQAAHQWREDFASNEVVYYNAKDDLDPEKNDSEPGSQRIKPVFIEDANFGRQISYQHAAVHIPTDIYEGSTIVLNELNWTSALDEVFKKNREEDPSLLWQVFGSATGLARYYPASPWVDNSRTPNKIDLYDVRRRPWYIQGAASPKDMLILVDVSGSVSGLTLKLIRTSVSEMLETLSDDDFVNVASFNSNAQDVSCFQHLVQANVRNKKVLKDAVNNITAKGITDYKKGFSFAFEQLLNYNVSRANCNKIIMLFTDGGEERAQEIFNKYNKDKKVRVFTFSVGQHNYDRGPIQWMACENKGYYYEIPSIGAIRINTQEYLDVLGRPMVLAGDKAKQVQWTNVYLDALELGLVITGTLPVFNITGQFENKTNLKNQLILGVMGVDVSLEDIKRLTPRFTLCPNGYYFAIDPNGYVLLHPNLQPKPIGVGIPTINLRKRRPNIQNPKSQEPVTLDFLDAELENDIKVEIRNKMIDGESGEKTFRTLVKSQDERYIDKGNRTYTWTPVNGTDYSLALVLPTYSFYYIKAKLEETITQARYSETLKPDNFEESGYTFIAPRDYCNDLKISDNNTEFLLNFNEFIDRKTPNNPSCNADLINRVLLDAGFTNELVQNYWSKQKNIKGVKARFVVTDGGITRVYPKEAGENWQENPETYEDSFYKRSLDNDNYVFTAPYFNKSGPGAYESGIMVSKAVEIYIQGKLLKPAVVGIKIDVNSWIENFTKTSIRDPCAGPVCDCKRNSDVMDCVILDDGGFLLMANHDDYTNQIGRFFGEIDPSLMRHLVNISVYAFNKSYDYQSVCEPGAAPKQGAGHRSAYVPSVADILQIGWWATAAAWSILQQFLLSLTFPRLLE
T2 sequence (P54289 957-1103 partner limits assumed): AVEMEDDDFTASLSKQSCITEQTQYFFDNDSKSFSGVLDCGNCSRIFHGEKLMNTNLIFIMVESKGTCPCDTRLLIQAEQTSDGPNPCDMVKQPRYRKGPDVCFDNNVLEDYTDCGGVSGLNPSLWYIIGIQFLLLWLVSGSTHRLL
As to the kind of experiment: Automated electrophysiology assay (QPatch-HT whole-cell patch clamp). It is filed as cell-based. As to the method:
Cells were grown in T175 flasks to 50%-90% confluence. At the time of use, cells were enzymatically treated with Detachin (Genlantis, San Diego, Calif. USA), centrifuged, rinsed, and resuspended in 293 SFM II media (Life Technologies, Grand Island, N.Y. U.S.A.) supplemented with 25 mM HEPES (Sigma-Aldrich, St. Louis, Mo. U.S.A.) to a concentration of 2-3×10^6 cells/mL. Cells were added to the automated cell preparation station on the QPatch-HT (Sophion Biosciences, North Brunswick, N.J. U.S.A.), and following a 10- to 30-min recovery period with gentle stirring, the assay protocol was initiated. During the automated cell preparation, cells were collected, centrifuged and resuspended in an extracellular (EC) solution containing 132 mM NaCl, 1.8 mM CaCl2, 5.4 mM KCl, 0.8 mM MgCl2, 10 mM glucose, and 10 mM HEPES (pH=7.4), adjusted with sucrose to approximately 315 m0sm. The QPlate was primed with an intracellular solution containing 135 mM CsCl, 10 mM EGTA, 4 MgATP, 0.3 NaGTP, and 20 mM HEPES (pH=7.2), adjusted to approximately 290 m0sm with deionized water and the EC solution. Cells were added to the prepared QPlate wells by robotic pipettes of the QPatch-HT.
For cells determined to be in stable whole-cell patch clamp, the EC solution was replaced with a barium (Ba)/triethylammonium (TEA) solution containing 140 mM TEA-Cl, 10 mM BaCl2, 0.8 mM MgCl2, 10 mM glucose and 10 mM HEPES (pH=7.4). High (40 mM) BaCl2 concentrations were made with adjustments to TEA-C1 (90 mM) to maintain the osmolarity. From a resting potential of −80 mV, a train of depolarizing pulses (15 pulses at 5 Hz, +20 mV) was delivered to the cell once every 30 sec for eight trains (4 min total), and the resulting currents were measured during a control period (no compound). This protocol was repeated for each subsequent addition of control buffer with or without compound (three periods total, each with four trains). The current generated in the 1st and 15th pulses of the last train of each period in the presence of each drug concentration was normalized to the current generated during the control period at the respective pulses (representing low- and high-frequency stimulation, respectively). Data from both the second and third drug application periods were analyzed for each cell. A final addition of Ba/TEA solution containing 60-100 μM CdCl2 was made to block all N-type current and to “zero” the currents for each cell. All buffer/compound additions were made using a “spitting” feature of the QPatch-HT, which added three repetitions of 5 μL solution at the beginning of each recording period.
To examine closed-state inactivation, cells were subjected to a channel-activating 50-msec depolarizing step pulse from −80 to +10 mV, followed by a 5-sec nonactivating step to voltages ranging from −130 to −60 mV in 10 mV increments and then a 50-ms step from −80 to +10 mV to assess the remaining current. Currents from the activating voltage pulse were normalized to the peak value of the test pulse following the −130 mV step and fit to a Boltzman equation to obtain the V1/2. Roscovitine (Sigma-Aldrich) was prepared as a 100 mM stock in dimethyl sulfoxide and diluted to the indicated working concentrations. […]. Compounds of Formula (I) were diluted first into dimethyl sulfoxide and then into 10% pluronic F-127 in water (Life Technologies), sonicated for 1 min and diluted into EC buffer. Vehicle controls were run in parallel in all experiments.
Unless otherwise indicated, statistics for comparing among electrophysiological results utilized a one-way analysis of variance with Fisher's least squares determination test for pair-wise comparison.
Background: The patch-clamp technique gives a direct electrical read-out from membranes.

Setting [2] is: high frequency (15th pulse of train, 5 Hz), read-out: QPatch at High Frequency % Inhibition.
The mark [3] stands for this setting: low frequency (1st pulse of train), read-out: QPatch at Low Frequency % Inhibition.

The structures appear in SMILES notation. Like-named read-outs stand apart in the source and are kept apart here.

T1 sequence (Q00975 whole entry): as the sequence (Q00975 whole entry) above
T1 sequence (P54284 whole entry partner): as the sequence (P54284 whole entry partner) above
T1 sequence (P54289 25-956 partner limits assumed): as the sequence (P54289 25-956 partner limits assumed) above
T1 sequence (P54289 957-1103 partner limits assumed): as the sequence (P54289 957-1103 partner limits assumed) above

`CN(C)S(=O)(=O)N1Cc2nn(-c3ccccc3OCC(F)F)c(-c3ccc(Cl)cc3)c2C1` [Cpd 95, 3-(4-Chlorophenyl)-2-[2-(2,2-difluoroethoxy)phenyl]-N,N-dimethyl-2,6-dihydropyrrolo[3,4-c]pyrazole-5(4H)-sulfonamide]: in test [1], the inhibition at 0.33 µM was 79% and the 50% inhibitory concentration (IC50) was 50 nM. For the same compound, the inhibition at 0.1 µM at N-type calcium channel (setting [2]) came out at 23%. At N-type calcium channel (setting [3]), the inhibition at 0.1 µM was -4%.

In the case of `COc1ccccc1-n1nc2c(c1-c1ccc(Cl)cc1)CN(S(=O)(=O)CCNS(=O)(=O)N(C)C)C2` [Cpd 46, N′-(2-{[3-(4-Chlorophenyl)-2-(2-methoxyphenyl)-2,6-dihydropyrrolo[3,4-c]pyrazol-5(4H)-yl]sulfonyl}ethyl)-N,N-dimethylsulfamide], the IC50 in test [1] came to 5 nM. Further, the inhibition at 0.1 µM at N-type calcium channel (setting [2]) is -6%; on N-type calcium channel (setting [3]), -8%.

As to `COc1ccccc1-n1nc2c(c1-c1ccc(Cl)nc1)CN(S(=O)(=O)C(C)C)C2` [Cpd 92, 3-(6-Chloropyridin-3-yl)-2-(2-methoxyphenyl)-5-[(1-methylethyl)sulfonyl]-2,4,5,6-tetrahydropyrrolo[3,4-c]pyrazole], the inhibition at 0.33 µM in test [1] was 86%. In addition, the IC50 in test [1] came out at 16 nM. Further, the inhibition at 0.1 µM on N-type calcium channel (setting [2]) amounted to 10%; at N-type calcium channel (setting [3]), 14%.

Consider `CC(C)CS(=O)(=O)N1Cc2nn(-c3cccc4c3OCC4)c(-c3ccc(Cl)cc3)c2C1` [Cpd 85, 3-(4-Chlorophenyl)-2-(2,3-dihydro-1-benzofuran-7-yl)-5-[(2-methylpropyl)sulfonyl]-2,4,5,6-tetrahydropyrrolo[3,4-c]pyrazole], for which, in test [1], the inhibition at 0.33 µM was 94% and the IC50 is 14 nM. Also, the inhibition at 0.1 µM at N-type calcium channel (setting [2]) amounted to 37%. The inhibition at 0.1 µM on N-type calcium channel (setting [3]) is 13%.

Turning to `COc1ccccc1-n1nc2c(c1-c1ccc(Cl)cc1)CN(S(=O)(=O)C1CC1)C2` [Cpd 32, 3-(4-Chlorophenyl)-5-(cyclopropylsulfonyl)-2-(2-methoxyphenyl)-2,4,5,6-tetrahydropyrrolo[3,4-c]pyrazole], in test [1], the IC50 was 21 nM. Moreover, on N-type calcium channel (setting [2]), the inhibition at 0.03 µM was -5%, the inhibition at 0.05 µM was found to be 23%, the inhibition at 0.25 µM amounted to 64% and the inhibition at 1 µM came to 83%. Further, on N-type calcium channel (setting [3]), the inhibition at 0.03 µM was -6%, the inhibition at 0.05 µM is 10%, the inhibition at 0.25 µM amounted to 57% and the inhibition at 1 µM stood at 74%.

Regarding `COc1ccccc1-n1nc2c(c1-c1ccc(Cl)cc1)CN(S(=O)(=O)N(C)C)C2` [Cpd 33, 3-(4-Chlorophenyl)-2-(2-methoxyphenyl)-N,N-dimethyl-2,6-dihydropyrrolo[3,4-c]pyrazole-5(4H)-sulfonamide], the IC50 in test [1] is 9 nM. Also, the inhibition at 1 µM at N-type calcium channel (setting [2]) is 78%; on N-type calcium channel (setting [3]), 74%.

`COc1cc(F)ccc1-n1nc2c(c1-c1ccc(Cl)cc1)CN(S(=O)(=O)C(C)C)C2` [Cpd 71, 3-(4-Chlorophenyl)-2-(4-fluoro-2-methoxyphenyl)-5-[(1-methylethyl)sulfonyl]-2,4,5,6-tetrahydropyrrolo[3,4-c]pyrazole]: in test [1], the inhibition at 0.33 µM turned out to be 91% and the IC50 was found to be 21 nM. Besides, on N-type calcium channel (setting [2]), the inhibition at 0.1 µM stood at 1%. Further, the inhibition at 0.1 µM at N-type calcium channel (setting [3]) was -30%.

With `COc1ccccc1-n1nc2c(c1-c1ccc(Cl)cc1)CN(S(=O)(=O)C(C)C)C2` [Cpd 31, 3-(4-Chlorophenyl)-2-(2-methoxyphenyl)-5-[(1-methylethyl)sulfonyl]-2,4,5,6-tetrahydropyrrolo[3,4-c]pyrazole], in test [1], the inhibition at 0.33 µM stood at 94% and the IC50 was 10 nM. Further, the inhibition at 0.1 µM at N-type calcium channel (setting [2]) was determined as 47%. The inhibition at 0.1 µM on N-type calcium channel (setting [3]) stood at 11%.

Consider `COc1ccccc1-n1nc2c(c1-c1ccc(Cl)cc1)CN(S(=O)(=O)N1CCOCC1)C2` [Cpd 59, 3-(4-Chlorophenyl)-2-(2-methoxyphenyl)-5-(morpholin-4-ylsulfonyl)-2,4,5,6-tetrahydropyrrolo[3,4-c]pyrazole], for which the IC50 in test [1] was 2 nM. Further, the figures for the inhibition at 0.1 µM at N-type calcium channel (setting [2]) and at N-type calcium channel (setting [3]) were 51% and 28%, respectively.

For `CC(C)S(=O)(=O)N1Cc2nn(-c3cccc4c3OCO4)c(-c3ccc(Cl)cc3)c2C1` [Cpd 81, 2-(1,3-Benzodioxol-4-yl)-3-(4-chlorophenyl)-5-[(1-methylethyl)sulfonyl]-2,4,5,6-tetrahydropyrrolo[3,4-c]pyrazole], in test [1], the inhibition at 0.33 µM was found to be 89% and the IC50 turned out to be 20 nM. On N-type calcium channel (setting [3]), the inhibition at 0.1 µM is -19%.

For the compound `CCCC(C)S(=O)(=O)N1Cc2nn(-c3ccccc3OC)c(-c3ccc(Cl)cc3)c2C1` (stereo not shown) [Cpd 41, 3-(4-Chlorophenyl)-2-(2-methoxyphenyl)-5-[(1-methylbutyl)sulfonyl]-2,4,5,6-tetrahydropyrrolo[3,4-c]pyrazole], in test [1], the inhibition at 0.33 µM was determined as 90% and the IC50 is 19 nM. Further, at N-type calcium channel (setting [2]), the inhibition at 0.1 µM is 40% and the inhibition at 1 µM came out at 91%. On N-type calcium channel (setting [3]), the inhibition at 0.1 µM amounted to 7% and the inhibition at 1 µM stood at 80%.

In the case of `COc1cc(F)ccc1-n1nc2c(c1-c1ccc(Cl)cc1)CN(S(=O)(=O)N1CCC(C)CC1)C2` [Cpd 73, 3-(4-Chlorophenyl)-2-(4-fluoro-2-methoxyphenyl)-5-[(4-methylpiperidin-1-yl)sulfonyl]-2,4,5,6-tetrahydropyrrolo[3,4-c]pyrazole], in test [1], the inhibition at 0.33 µM was found to be 93%. The concentration for half-maximal inhibition (IC50) in test [1] was determined as 24 nM. Also, the inhibition at 0.1 µM at N-type calcium channel (setting [2]) is -28%; at N-type calcium channel (setting [3]) it was -34%.

With `CCOc1ccccc1-n1nc2c(c1-c1ccc(Cl)cc1)CN(S(C)(=O)=O)C2` [Cpd 49, 3-(4-Chlorophenyl)-2-(2-ethoxyphenyl)-5-(methylsulfonyl)-2,4,5,6-tetrahydropyrrolo[3,4-c]pyrazole], the IC50 in test [1] was 2 nM. For the same compound, the inhibition at 0.1 µM at N-type calcium channel (setting [2]) was 22%; on N-type calcium channel (setting [3]), 18%.

With `COc1ccccc1-n1nc2c(c1-c1ccc(Cl)cc1)CN(S(=O)(=O)c1c(C)noc1C)C2` [Cpd 87, 3-(4-Chlorophenyl)-5-[(3,5-dimethylisoxazol-4-yl)sulfonyl]-2-(2-methoxyphenyl)-2,4,5,6-tetrahydropyrrolo[3,4-c]pyrazole], in test [1], the inhibition at 0.33 µM came out at 89% and the IC50 was found to be 17 nM. Also, the inhibition at 0.1 µM on N-type calcium channel (setting [2]) was found to be 49%. For the same compound, at N-type calcium channel (setting [3]), the inhibition at 0.1 µM stood at 31%.

A word on the inhibition: it is the drop in the measured response relative to a control, in per cent. The IC50 is the point on the concentration scale where inhibition reaches its midpoint.
